Consider four compounds from patent publication US20040058901A1, “Crystalline ethanolate solvate form of zafirluskast process for manufacture and pharmaceutical compositions thereof” (priority 2000, published 2004).

Where “and” joins values, the source holds several entries; their conditions need not be identical. Equal entries are not always repeated. Entries after “also recorded” stand apart in the source; their conditions may differ. Where two headings read alike, the source gives them in different places.

The conditions of data set [1]: cited from earlier work; for physical stability of the solid form: as disclosed in U.S. Pat. No. 5,993,859.
The conditions of data set [2]: as disclosed in U.S. Pat. No. 5,993,859; cited from earlier work.
Data set [3] in a line: Physical stability of zafirlukast ethanolate and its compositions. It is filed as physicochemical.
Data set [4] in a line: Hygroscopicity comparison in controlled humidity chambers, Karl Fisher water content. As to conditions: compared with zafirlukast Form A; 25° C./60% relative humidity and 40° C./75% relative humidity, two weeks. In kind it is physicochemical. As to the method:
Hygroscopicities of zafirlukast ethanolate and zafirlukast Form A were compared by maintaining samples in controlled humidity chambers at 25° C. under 60% relative humidity and at 40° C. under 75% relative humidity for a period of two weeks, followed by Karl Fisher analysis of water content.

A short description of data set [5]: Drying of zafirlukast ethanolate in an air oven (weight loss, physical properties). In kind it is physicochemical. The following applies: 105±1° C., 4 hours. On the procedure:
Preferably, the methods further comprise the step of drying the crystals of zafirlukast ethanolate. Effective drying methods include vacuum oven drying, air oven or simple vacuum desiccator drying. The ethanolate is stable at ambient temperature and will tolerate vacuum drying. When vacuum oven drying is used, one must exercise caution to avoid breaking the ethanolate. Preferred drying conditions for the ethanol solvate are about 30 to about 70° C. vacuum oven drying and are about 30 to about 105° C. at air oven drying.
5.0 g of zafirlukast Forms A, B or X, prepared according to U.S. Pat. No. 5,993,859 or zafirlukast, prepared according to J. Med. Chem., v. 33, 1781 (1990) were dissolved in hot acetone (50 mL). The solution was concentrated under reduced pressure to the volume of about 20 mL, heated to reflux and absolute ethanol (100 mL) was added to the solution. Acetone was distilled off from the stirred mixture through a 10 cm Vigreux column equipped with a distillation head until the temperature of vapor in the head of the column reached 78° C. The resulting mixture was kept overnight at the room temperature. The precipitated crystals were filtered off, washed on filter with ice cold absolute ethanol (2×5 mL) and dried under reduced pressure at 60° C. (water bath) to give crystalline zafirlukast ethanolate with mp 130-132° C.

The mark [6] stands for this setting: high relative humidity and elevated temperatures.

For `COc1cc(C(=O)NS(=O)(=O)c2ccccc2C)ccc1Cc1cn(C)c2ccc(NC(=O)OC3CCCC3)cc12` [Form B, cyclopentyl 3-[2-methoxy-4-[(o-tolylsulfonyl)carbamoyl]benzyl]-1-methylindole-5-carbamate], the “physical stability of the solid form” value in data set [1] is “physically unstable”.
`COc1cc(C(=O)NS(=O)(=O)c2ccccc2C)ccc1Cc1cn(C)c2ccc(NC(=O)OC3CCCC3)cc12` [Form A, cyclopentyl 3-[2-methoxy-4-[(o-tolylsulfonyl)carbamoyl]benzyl]-1-methylindole-5-carbamate]: the bioavailability result in data set [2] is reported as “relatively good bioavailability”. For the same compound, the “form conversion under high relative humidity and elevated temperatures” value in data set [1] (setting [6]) was “conversion of form A into form B occurs”.
For the compound `CCO.COc1cc(C(=O)NS(=O)(=O)c2ccccc2C)ccc1Cc1cn(C)c2ccc(NC(=O)OC3CCCC3)cc12` [zafirlukast ethanolate], the “physical stability of the solid form” value in data set [3] is given as “relatively stable”. Moreover, in data set [3] (ambient temperature), the “stability at ambient temperature” value is listed as “stable”. The “stability under high relative humidity and elevated temperatures” value in data set [3] (setting [6]) is reported as “stable”. The hygroscopicity entry in data set [4] is listed as “less hygroscopic than other known forms of zafirlukast; also recorded: less hygroscopic than Form A of zafirlukast”. In data set [5], the “change of physical properties on drying (mp, 1H NMR, infra-red spectra)” value was “without substantial change of physical properties”; the “weight loss on drying” value was < 1% and 0.86%.
As for `COc1cc(C(=O)NS(=O)(=O)c2ccccc2C)ccc1Cc1cn(C)c2ccc(NC(=O)OC3CCCC3)cc12` [Form X, cyclopentyl 3-[2-methoxy-4-[(o-tolylsulfonyl)carbamoyl]benzyl]-1-methylindole-5-carbamate], in data set [2], the bioavailability result is “relatively poor bioavailability”. Moreover, in data set [1], the “physical stability of the solid form” value is listed as “physically stable”.
